In this assay the test system is PPO dG210 mutant Tall Waterhemp (Amaranthus tuberculatus). It is filed as in vivo. Particulars: relative to Flumioxazin, Sulfentrazone, and Pyroxasulfone.

The results in this text go back to patent US12637438B2, “Protoporphyrinogen oxidase inhibitors” (Enko Chem, Inc., priority 2021, dated 2026).

Molecules are shown by their SMILES.

As to `C#CCN1C(=O)C(F)(F)Oc2cc(F)c(-c3c(F)c(F)c(F)c(F)c3F)cc21` [Compound 2, 2,2,7-trifluoro-6-(perfluorophenyl)-4-(prop-2-yn-1-yl)-2H-benzo[b][1,4]oxazin-3(4H)-one], the “resistant weed control, comparison in words” value is “more effective at resistant weed control than the other commercially available herbicides”.
